*1 amine or outer side, *2 acyl side, *3 side chain or, on linkers, in order; H or OH if unused. Where a SMILES comes first, the peptide text is derived from it. Bridges are numbered along the chain shown (N, C = ends). Roman numbers before positions name the chains, in order. [ ]: non-standard residue; d: D form. X1 = O=C(CCCCC(=O)[*:2])NCCCOCCOCCOCCCNC(=O)CCC(=O)[*:1]; NMeF = CN[C@@H](Cc1ccccc1)C(=O)O; NMeL = CN[C@@H](CC(C)C)C(=O)O; NMeV = CN[C@H](C(=O)O)C(C)C
Legend:
Aβ40 = target: T1, Aβ40 (Homo sapiens, UniProt P05067); assay: NMR titration with SVD, residue-specific KD; type: binding; conditions: residues R5, L17, V24, K28, and G29 of Aβ40, read-out: dissociation constant (KD)
T1 construct: 15N labeled (a) Aβ40 (80 μM)

[1] = system: hippocampal neurons, Aβ40-infused rats; assay: Cresyl violet staining of Nissl granules in hippocampal neurons; type: in vivo, Sprague-Dawley rats; conditions: intra-hippocampal Aβ40, vs control and sham, P < 0.01, n = 6
Procedure: The overproduction of Aβ damages hippocampal neurons and causes cognitive impairments in AD. […] Cresyl violet staining was performed for identification of Nissl granules in neurons to reveal hippocampal neurodegeneration in this experiment. […]
e. Histopathological experiments for sub-chronic toxicity
Histopathological analysis was carried out on the preserved liver and kidney tissues. The SP1 treated rats and control rats were sacrificed by decapitation after 42 days of treatment schedule. Organs were removed and fixed in 10% buffered neutral formalin for 48 h. The fixed organs were embedded in paraffin wax. Sections were cut by using a microtome with 5-micrometer thickness. Slides were stained with Haematoxylin and eosin (H &E staining) for histological examination. Slides were observed under the light microscope (Dewinter Smart, India)for histopathological changes, and images were taken at […]
The lyophilized Aβ40 peptide was dissolved in artificial cerebrospinal fluid (aCSF: 119mM NaCl, 26.2mm NaHCO3, 2.5mM KCl, 1mM NaH2PO4, 1.3mM MgCl2, 10mM glucose; pH 7.4) solution at a concentration of 1mg/ml for stock and incubated at 37°C for 72 h to induce aggregation. The solution finally kept at 4°C before using it. […]
respective concentrations of SP1were prepared from this stock solution. g. […]

SH-SY5Y cells = assay: Intracellular Ca2+ (Fura-2AM); type: cell-based, human; conditions: Aβ40 10 μM, compared to untreated cells
Source text: Condensed or fragmented nuclear bodies characterize the distinctive nature of apoptotic cells. […] Dyshomeostasis of Ca^2+ is also responsible for the increased production of Aβ peptides, by which a degenerative feed-forward cycle is activated, resulting in accelerated apoptosis, synaptic dysfunction, and memory impairment.[49] […]
e. Measurement of intracellular calcium (Ca 2+)
Ca2+sensitive dye Fura-2AM was used to measure free intracellular Ca2+level in SH-SY5Y cell suspension by the previously described method.12 Following treatment with the respective drug, Fura-2 AM (Cayman, USA) at a concentration of 5 µM was added to the culture medium and incubated at 37°C for 45 min. Next, Krebs-Ringer-HEPES (KRH) buffer (135mM NaCl, 5mM KCl, 1mM MgSO4, 0.4mM KH2PO4, 1mM CaCl2, 5.5mM glucose, 20mM HEPES, pH 7.4) was used to wash each plate twice containing (1×10^6cells). Fluorescent microplate reader (FLX 800, Biotek, USA) was used to measure the fluorescence intensity with an excitation and emission spectra of […], respectively. Results are Mean±SEM of quadruplicate measurements from three separate experiments and expressed in the increase in percent relative fluorescent unit (RFU) relative to the baseline reading.
Western blot analysis was performed to measure Bax, Bcl-2, cleaved Caspase 9 and cleaved Caspase 3, pro and anti-apoptotic proteins expression. […]

Row | Compound | Kd (Aβ40) [µM] | intensity of Nissl granules, Aβ40 alone [1] | intracellular Ca2+ level, Aβ40 alone (SH-SY5Y cells)
1 | CC(C)C[C@H](NC(=O)CNC(=O)CCC(=O)NCCCOCCOCCOCCCNC(=O)CCCCC(=O)NCC(=O)N(C)[C@@H](CC(C)C)C(=O)N[C@H](C(=O)N(C)[C@@H](Cc1ccccc1)C(=O)N[C@@H](Cc1ccccc1)C(=O)N[C@@H](C)C(N)=O)C(C)C)C(=O)N(C)[C@H](C(=O)N[C@@H](Cc1ccccc1)C(=O)N(C)[C@@H](Cc1ccccc1)C(=O)N[C@@H](C)C(N)=O)C(C)C [SP1] (I: GL[NMeV]F[NMeF]A-NH2 / II: G[NMeL]V[NMeF]FA-NH2; linker I:N-II:N via X1) | ~200 | – | –
2 | Aβ40: commercially available Aβ40 peptide | – | significant (P < 0.01) decrease in the intensity of Nissl granules | significantly elevated intracellular Ca^2+ levels
